Data published in paper PMC5338256, “D-form KLKLLLLLKLK-NH2 peptide exerts higher antimicrobial properties than its L-form counterpart via an association with bacterial cell wall components” (Scientific Reports, 2017).
Converted amounts (≈) assume the structure as drawn. Where two headings read alike, the source gives them in different places. Non-standard residues stand in square brackets, D forms with d. Residues, ends and D or L forms follow the SMILES beside them. No end group written: not given here.

Columns and labels:
[1] = system: S. aureus; format: cell-based, Staphylococcus aureus (NBRC100910)
Description: (§1) S. aureus (NBRC100910), E. coli W3110 (NBRC12713), E. hirae (NBRC3181), C. albicans (NBRC1385), and S. Typhimurium 14028s (ATCC14028)[2] were used in this study. S. aureus, E. coli, and S. Typhimurium were grown at 37 °C with aeration in Muller-Hinton II medium (BD Biosciences). E. hirae was grown at 37 °C in LB medium (Nacalai Tesque, Inc.) containing 0.5% glucose (w/v). C. albicans was grown at room temperature with aeration in YM medium (BD Biosciences). All experiments were conducted using bacterial cells and C. albicans in the logarithmic-phase of growth.
(§2) Bacterial suspensions in Muller-Hinton II medium were adjusted to an optical density of 550 nm (OD550) = 0.0011. C. albicans suspensions in YM medium were adjusted to OD650 = 0.033. Peptides were serially diluted in 10 mM phosphate buffer (pH 6.0) containing 130 mM sodium chloride, 0.2% bovine serum albumin, and 2.56% dimethyl sulfoxide. The peptide solution (100 μl) was mixed with 100 μl of bacteria or C. albicans suspensions. Bacterial cultures were incubated for one day at 37 °C. C. albicans cultures were incubated for two days at room temperature. Cell growth was monitored optically and the MIC was determined.

[2] = system: Gram-positive bacteria; settings: cited from earlier work
From the text: Sapecin B is an antimicrobial peptide that was originally isolated from the culture medium of an embryonic cell line, NIH-Sape-4, derived from Sarcophaga peregrine (flesh fly). […] Two other related proteins, sapecin and sapecin C, were also isolated from culture medium of NIH-Sape-4[13][14][15]. Sapecin B has significant sequence similarity to a scorpion venom toxin, charybdotoxin[13][16]. Structural comparison of sapecin B and charybdotoxin identified the undecapeptide RSLCLLHCRLK-NH2, which corresponds to amino acid residues 7 to 1 ...

[3] = system: S. aureus; test: Assay for antimicrobial activity (10 min exposure, CFU); format: cell-based, Staphylococcus aureus (NBRC100910); settings: 10 min at 37 °C, standard assay with culture medium and 0.2% BSA, triplicate plates
Description: as §1
(§3) Bacteria and C. albicans were suspended in growth medium. Peptides suspended in dimethyl sulfoxide were serially diluted in 10 mM phosphate buffer (pH 6.0) containing 130 mM sodium chloride, 0.2% bovine serum albumin as described previously. In order to examine the effects of bovine serum albumin on the assay, 10 mM phosphate buffer (pH 6.0) containing 130 mM sodium chloride, was used for the dilution of peptides. Peptide solution (500 μl) was added to 500 μl of bacteria suspensions and then the mixture was incubated at 37 °C for 10 min. In order to examine the effects of culture medium components on the assay, bacteria suspension was prepared with 10 mM phosphate buffer (pH 6.0) containing 130 mM sodium chloride. Alternatively, 500 μl of peptide solution was added to 500 μl of C. albicans suspensions and the mixture was incubated at room temperature for 10 min. The inhibitory effects of the bacterial components were analyzed by incubating 450 μl of S. aureus suspension with 500 μl of peptide solution plus 50 μl of inhibitor samples at 37 °C for 10 min. Then, the peptide/bacteria suspensions were diluted and plated onto LB agar, LB agar containing 0.5% glucose, or YM agar. After cultivation of the plates, colony forming units (CFU) in the peptide/bacteria suspension were calculated based on the average of triplicate plates.

[4] = system: S. aureus; test: Inhibition of antimicrobial activity by bacterial cell wall components; format: cell-based, Staphylococcus aureus; settings: Kn2–7 6.25 μg/ml, Mastoparan M 8 μg/ml, 10 min
Description: as §3
Peptidoglycan (120 μg) prepared from S. aureus was added to 1 mg/ml of lysozyme in phosphate buffered saline (150 μl)[33]. Peptidoglycan without lysozyme and lysozyme without peptidoglycan were also prepared as controls. Samples were incubated overnight at 37 °C, and then incubated at 100 °C for 15 min to inactivate lysozyme. For heat-inactivation of peptidoglycan, 600 μg of peptidoglycan suspended in water (300 μl) was incubated at 100 °C for 15 min. The samples were sonicated for 10 sec at setting 1 using a Branson sonifier model S-150D. These samples were used as inhibitor samples for antimicrobial activity assays.

[5] = system: S. aureus; test: Assay for membrane permeability (ethidium influx); format: cell-based, Staphylococcus aureus; settings: 20 μg/ml peptide, fluorescence for 180 sec, 10 mM phosphate buffer pH 6.0, 130 mM NaCl, 0.2% BSA
Description: To examine membrane permeability, ethidium influx rates were examined as previously described. S. aureus suspension cultures were adjusted to an OD600 of 0.4 in 10 mM phosphate buffer (pH 6.0) containing 130 mM sodium chloride and 0.2% bovine serum albumin. Then, peptide in dimethyl sulfoxide (8 μl) or dimethyl sulfoxide alone (8 μl) was added to 2 ml of S. aureus suspensions. At 30 sec after the addition of peptide, ethidium bromide was added to a final concentration of 5 μg/ml, and fluorescence of the ethidium-nucleic acid complex was monitored using a RF-5300PC spectrofluorometer (Shimadzu). Excitation and emission wavelengths were 545 nm with 5 nm slits and 600 nm with 10 nm slits, respectively.

[6] = system: E. coli; format: cell-based, Escherichia coli W3110 (NBRC12713); settings: pH 6
Description: as §1, §2

[7] = system: C. albicans; format: cell-based, Candida albicans (NBRC1385)
Description: as §1, §2

[8] = system: S. aureus; test: Peptide degradation in the S. aureus assay mixture (SDS-PAGE, Ruby stain); format: in vitro ADME, Staphylococcus aureus; settings: 15 μg/ml peptide with S. aureus, 10 min at 37 °C, antimicrobial assay mixture, Ruby protein gel stain
[9] = S. aureus, Muller-Hinton II medium mixed 1:1 with peptide in 10 mM phosphate buffer pH 6.0, 130 mM NaCl, 0.2% BSA, 2.56% DMSO, one day at 37 °C, growth monitored optically

In the case of KLKLLLKLK-NH2 [L-form KLKLLLKLK-NH2], the MIC [1, 9] was >128 µg/mL.

In the case of “RSLCLLHCRLK-NH2 [undecapeptide, amino acid residues 7 to 17 of sapecin B with C-terminal amidation]”, the antimicrobial activity [2] is given as “significant antimicrobial activity”.

For “FLPLIGRVLSGIL-NH2 [L-form FLPLIGRVLSGIL-NH2, reference compound]”, the MIC [1, 9] was 8 µg/mL.

For CC(C)C[C@@H](NC(=O)[C@H](N)CCCCN)C(=O)N[C@H](CCCCN)C(=O)N[C@H](CC(C)C)C(=O)N[C@H](CC(C)C)C(=O)N[C@H](CC(C)C)C(=O)N[C@H](CCCCN)C(=O)N[C@H](CC(C)C)C(=O)N[C@H](CCCCN)C(N)=O [D-form KLKLLLKLK-NH2] (H-[dK][dL][dK][dL][dL][dL][dK][dL][dK]-NH2; N-terminus assumed), the “fold by which the MIC of the D-form is lower than that of the L-form” value ([1]; S. aureus) was “more than 32 fold”, the MIC [1, 9] was 4 µg/mL (≈ 3.65 µM) and the “antimicrobial activity (CFU), D-form compared with L-form” value [3] was “higher”.

Work on “FIKRIARLLRKIF-NH2 [L-form FIKRIARLLRKIF-NH2, reference compound]” yielded an MIC [1, 9] of 4 µg/mL.

In the case of CC[C@@H](C)[C@@H](NC(=O)[C@H](N)Cc1ccccc1)C(=O)N[C@H](CCCCN)C(=O)N[C@H](CCCNC(=N)N)C(=O)N[C@@H](C(=O)N[C@H](C)C(=O)N[C@H](CCCNC(=N)N)C(=O)N[C@H](CC(C)C)C(=O)N[C@H](CC(C)C)C(=O)N[C@H](CCCNC(=N)N)C(=O)N[C@H](CCCCN)C(=O)N[C@@H](C(=O)N[C@H](Cc1ccccc1)C(N)=O)[C@H](C)CC)[C@H](C)CC [D-form FIKRIARLLRKIF-NH2, reference compound] (H-[dF][dI][dK][dR][dI][dA][dR][dL][dL][dR][dK][dI][dF]-NH2; N-terminus assumed), the MIC [1, 9] was 4 µg/mL (≈ 2.39 µM) and the “inhibitory effect of S. aureus peptidoglycan on the antimicrobial activity” value [4] was “significant inhibitory effects”.

Work on CC[C@@H](C)[C@@H](NC(=O)CNC(=O)[C@@H](CO)NC(=O)[C@@H](CC(C)C)NC(=O)[C@H](NC(=O)[C@@H](CCCNC(=N)N)NC(=O)CNC(=O)[C@H](NC(=O)[C@@H](CC(C)C)NC(=O)[C@H]1CCCN1C(=O)[C@@H](CC(C)C)NC(=O)[C@H](N)Cc1ccccc1)[C@H](C)CC)C(C)C)C(=O)N[C@H](CC(C)C)C(N)=O [D-form FLPLIGRVLSGIL-NH2, reference compound] (H-[dF][dL][dP][dL][dI]G[dR][dV][dL][dS]G[dI][dL]-NH2; N-terminus assumed) yielded an MIC [1, 9] of 8 µg/mL (≈ 5.73 µM).

“INLKAIAALAKKLL-NH2 [L-form INLKAIAALAKKLL-NH2, reference compound]” showed an MIC [1, 9] of 16 µg/mL.

For CC[C@@H](C)[C@@H](N)C(=O)N[C@H](CC(N)=O)C(=O)N[C@H](CC(C)C)C(=O)N[C@H](CCCCN)C(=O)N[C@H](C)C(=O)N[C@@H](C(=O)N[C@H](C)C(=O)N[C@H](C)C(=O)N[C@H](CC(C)C)C(=O)N[C@H](C)C(=O)N[C@H](CCCCN)C(=O)N[C@H](CCCCN)C(=O)N[C@H](CC(C)C)C(=O)N[C@H](CC(C)C)C(N)=O)[C@H](C)CC [D-form INLKAIAALAKKLL-NH2, reference compound] (H-[dI][dN][dL][dK][dA][dI][dA][dA][dL][dA][dK][dK][dL][dL]-NH2), the MIC [1, 9] was 16 µg/mL (≈ 10.8 µM), the “ethidium bromide influx rate” value [5] was “increased ethidium bromide influx rates to a similar extent” and the “inhibitory effect of S. aureus peptidoglycan on the antimicrobial activity” value [4] was “weak inhibitory effects”.

For “KLKLLLLLKLK-NH2 [L-form KLKLLLLLKLK-NH2]”, the MIC ([1]; pH 6) was 16 µg/mL, the MIC [6] was 16 µg/mL and the MIC [7] was 64 µg/mL. The “specific degradation of the peptide” value [8] was “specific degradation of the L-form peptide was not observed”.
